Source: patent publication US10870634B2, “Histone demethylase inhibitors” (CELGENE QUANTICEL RESEARCH, INC., priority 2016, dated 2020)

Target: T1, JMJD2C (Homo sapiens, UniProt Q9H3R0)
T1 construct: purchased BPS Bioscience 50105
T1 sequence (Q9H3R0 2-372): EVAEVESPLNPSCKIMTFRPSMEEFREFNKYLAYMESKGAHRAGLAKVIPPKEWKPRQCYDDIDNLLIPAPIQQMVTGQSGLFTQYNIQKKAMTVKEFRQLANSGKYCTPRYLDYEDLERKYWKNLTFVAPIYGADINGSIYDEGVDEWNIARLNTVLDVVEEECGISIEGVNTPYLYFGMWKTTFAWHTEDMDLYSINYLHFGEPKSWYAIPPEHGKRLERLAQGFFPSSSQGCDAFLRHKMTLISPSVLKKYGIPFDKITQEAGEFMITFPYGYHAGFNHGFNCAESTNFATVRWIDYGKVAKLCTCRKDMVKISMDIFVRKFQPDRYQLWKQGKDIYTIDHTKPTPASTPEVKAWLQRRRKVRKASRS
Assay: JMJD2C in vitro enzyme inhibition assay (TR-FRET)
Type: biochemical
Conditions: 0.3 nM JMJD2C, 300 nM H3K9me3-biotin peptide, 2 μM alpha-ketoglutaric acid
Text: This assay determines the ability of a test compound to inhibit Jarid1B, JMJD2C and JMJD3 demethylase activity. Baculovirus-expressed Jarid1B (GenBank Accession # NM-006618, AA 2-751) was purchased from BPS Bioscience (Cat #50121) or custom made by MolecularThroughput. Baculovirus-expressed JMJD2C (GenBank Accession # BC143571, AA 2-372) was purchased from BPS Bioscience (Cat #50105). Baculovirus-expressed JMJD3 (GenBank Accession # NM_001080424, AA1043-end) was purchased from BPS Bioscience (Cat #50115).
The ability of test compounds to inhibit the activity of JMJD2C was determined in 384-well plate format under the following reaction conditions: 0.3 nM JMJD2C, 300 nM H3K9me3-biotin labeled peptide (Anaspec cat #464360), 2 μM alpha-ketoglutaric acid in assay buffer of 50 mM HEPES, pH 7.3, 0.005% Brij35, 0.5 mM TCEP, 0.2 mg/ml BSA, 50 μM sodium L-ascorbate, and 2 μM ammonium ironll sulfate. Reaction product was determined quantitatively by TR-FRET after the addition of detection reagent Phycolink Streptavidin-allophycocyanin (Prozyme) and Europium-anti-di-methylated histone H3 lysine 9 (H3K9me2) antibody (PerkinElmer) in the presence of 5 mM EDTA in LANCE detection buffer (PerkinElmer) at a final concentration of 50 nM and 1 nM, respectively.
The assay reaction was initiated by the following: 2 μl of the mixture of 900 nM H3K9me3-biotin labeled peptide and 6 μM alpha-ketoglutaric acid with 2 μl of 11-point serial diluted inhibitor in 3% DMSO were added to each well of the plate, followed by the addition of 2 μl of 0.9 nM JMJD2C to initiate the reaction. […] Plates were read by EnVisionMultilabel Reader in TR-FRET mode (excitation at 320 nm, emission at 615 nm and 665 nm) after 1 hr incubation at RT. A ratio was calculated (665/615) for each well and fitted to determine inhibition constant (IC50).
The ability to inhibit demethylase activity was quantified and the respective IC50 value was determined for substituted triazolylpyridine derivative compounds. […]

IC50 [µM] | SMILES
> 10 | FC(F)(F)c1[nH]nnc1-c1ccncc1NCC1CCCc2ccccc21 (stereo not drawn) [Example 3, N-[(1,2,3,4-tetrahydronaphthalen-1-yl)methyl]-4-[5-(trifluoromethyl)-1H-1,2,3-triazol-4-yl]pyridine-3-amine]
> 10 | Fc1ccc(Cl)cc1Nc1cnccc1-c1nn[nH]c1C(F)(F)F [Example 2, N-(5-chloro-2-fluorophenyl)-4-[5-(trifluoromethyl)-1H-1,2,3-triazol-4-yl]pyridin-3-amine]
> 10 | Fc1cnccc1-c1nn[nH]c1C(F)(F)F [Example 1, 3-fluoro-4-[5-(trifluoromethyl)-1H-1,2,3-triazol-4-yl]pyridine]
